Source: PubChem BioAssay AID1963852 (Molecular Pharmacology Branch, DTP, NCI, 2024)
Several values for one entry are separate records, joined by “and”; a condition that tells them apart may be missing. Equal values may be shown once.

Test system: 282377-053-R-J1-PDC complex spheroid viability
Assay: Anticancer human tumor 282377-053-R-J1-PDC patient-derived colon adenocarcinoma cell line growth inhibition [POLQ]
Conditions: for viability, T/C: stronger effect = lower value; active = viability on the fitted dose curve at most 10% of control; inactive = the rest
Description: Multicellular complex tumor spheroid response to Polymerase (POL) inhibitors (novobiocin, ART-558, RP6685) in combination with a variety of drugs and investigational agents in selected tumor cell lines
The POL inhibitors (novobiocin, ART-558, and RP6685) were evaluated both individually and in combination with standard of care and investigational anticancer small molecules within a complex spheroid model of solid tumors. . Complex spheroids include a stromal component modeled by human endothelial cells (HUVEC) and fibroblasts modeled by human mesenchymal stem cells (MSCs). The concentration ranges selected for each drug and investigational agent were based upon clinically achievable concentrations if the clinical Cmax of the agent was known.
Compounds. The drugs and investigational agents: novobiocin (NSC847541), ART-558 (NSC835418), RP-6685 (NSC848927), peposertib (NSC802822), ceralasertib (NSC780249), elimusertib (NSC800525), camonsertib (NSC841442), AZD-1390 (NSC803789), olaparib (NSC753686), talazoparib (NSC767125), rucaparib (NSC756644), sotorasib (NSC818433), MRTX-1133 (NSC836407), SN-38 (NSC673596), topotecan (NSC609699), epotoside (NSC141540), doxorubicin (NSC123127), gemcitabine (NSC613327), 5-fluorouracil (NSC19893), paclitaxel (NSC125973), vemurafenib (NSC761431), MSA-2 (NSC828583), SN-011 (NSC837082), adavosertib (NSC754352), prexasertib (NSC758257), carboplatin (NSC241240) and oxaliplatin (NSC266046), were obtained from the National Cancer Institute (NCI) Developmental Therapeutics Program Chemical Repository (21). The FDA-approved anticancer drug set is available from the Developmental Therapeutics Program at https://dtp.cancer.gov/organization/dscb/obtaining/. […] The stock solutions were prepared in dimethyl sulfoxide (DMSO, Sigma-Aldrich, St. Louis, MO, cat. D2650), except for the platinum compounds which were prepared in saline (Quality Biological, Gaithersburg, MD, cat. 114-055-101), at 800-fold the tested concentration and stored at -70 degrees C prior to their use. All drugs and investigational agents were tested over a range starting from a high concentration at or near the clinical Cmax and decreasing in half-log increments. If the clinical Cmax for an agent had not been determined, the highest concentration tested was 10 microM, except for SN-38, which was tested at a high concentration of 1 microM.
Cell Culture. All cells were maintained in an incubator at 37 degrees C and 5% CO2 with 95% humidity. The PDC lines were cultured according to standard operating procedures established by the NCI PDMR (https://pdmr.cancer.gov). Table 3 of the manuscript, lists the cell lines along with the number of the three cell types plated to form the mct-spheroids and media for tumor cell growth. After thawing, all PDC lines, except 997537-175-T-J1-PDC and 415267-285-R-J2-PDC, were cultured in Matrigel-coated flasks prepared with a working solution of 1X Ham's F-12 nutrient mix, without supplementation (Thermo Fisher Scientific, cat. 11765054), 100 U/mL penicillin-streptomycin (Thermo Fisher Scientific, cat. 15140122), and 2.5% Matrigel (Corning Inc., Corning, NY, cat. 354248) for the first three passages. The two PDC lines 997537-175-T-J1-PDC and 415267-285-R-J2-PDC were cultured on uncoated flasks. The 857933-349-R-J2-PDC line was cultured in 6C/Colon 1B media containing advanced DMEM/F-12 (Thermo Fisher Scientific, cat. 12634028), 10 mM HEPES (Thermo Fisher Scientific, cat. 15630080), 1X GlutaMAX supplement (Thermo Fisher Scientific, cat. 35050061), 0.1 mg/mL primocin (InvivoGen, San Diego, CA, cat. ant-pm-2), 10% defined fetal bovine serum, heat inactivated (HyClone Laboratories Inc., Logan, UT, cat. SH30070.03HI), 50% L-WRN conditioned media (ATCC, cat. CRL-3276), 1.25 mM N-Acetyl-L-cysteine (Sigma-Aldrich, cat. A9165), 10 mM nicotinamide (Sigma-Aldrich, cat. N0636), 1X B-27 supplement (Thermo Fisher Scientific, cat. 17504044), 1X N-2 supplement (Thermo Fisher Scientific, cat. […]

[1] = curve of first compound, second compound 0.0316 µM
[2] = curve of first compound, second compound 0.1 µM
[3] = curve of first compound, second compound 0.316 µM
[4] = curve of first compound, second compound 1 µM
[5] = curve of first compound, second compound 3.16 µM
[6] = curve of first compound, second compound 10 µM
[7] = second compound 0.0316 µM, first compound 0.000316 µM
[8] = second compound 0.0316 µM, first compound 0.001 µM
[9] = second compound 0.0316 µM, first compound 0.00316 µM
[10] = second compound 0.0316 µM, first compound 0.01 µM
[11] = second compound 0.0316 µM, first compound 0.0316 µM
[12] = second compound 0.0316 µM, first compound 0.1 µM
[13] = second compound 0.1 µM, first compound 0.000316 µM
[14] = second compound 0.1 µM, first compound 0.001 µM
[15] = second compound 0.1 µM, first compound 0.00316 µM
[16] = second compound 0.1 µM, first compound 0.01 µM
[17] = second compound 0.1 µM, first compound 0.0316 µM
[18] = second compound 0.1 µM, first compound 0.1 µM
[19] = second compound 0.316 µM, first compound 0.000316 µM
[20] = second compound 0.316 µM, first compound 0.001 µM
[21] = second compound 0.316 µM, first compound 0.00316 µM
[22] = second compound 0.316 µM, first compound 0.01 µM
[23] = second compound 0.316 µM, first compound 0.0316 µM
[24] = second compound 0.316 µM, first compound 0.1 µM
[25] = second compound 1 µM, first compound 0.000316 µM
[26] = second compound 1 µM, first compound 0.001 µM
[27] = second compound 1 µM, first compound 0.00316 µM
[28] = second compound 1 µM, first compound 0.01 µM
[29] = second compound 1 µM, first compound 0.0316 µM
[30] = second compound 1 µM, first compound 0.1 µM
[31] = second compound 3.16 µM, first compound 0.000316 µM
[32] = second compound 3.16 µM, first compound 0.001 µM
[33] = second compound 3.16 µM, first compound 0.00316 µM
[34] = second compound 3.16 µM, first compound 0.01 µM
[35] = second compound 3.16 µM, first compound 0.0316 µM
[36] = second compound 3.16 µM, first compound 0.1 µM
[37] = second compound 10 µM, first compound 0.000316 µM
[38] = second compound 10 µM, first compound 0.001 µM
[39] = second compound 10 µM, first compound 0.00316 µM
[40] = second compound 10 µM, first compound 0.01 µM
[41] = second compound 10 µM, first compound 0.0316 µM
[42] = second compound 10 µM, first compound 0.1 µM
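Also: spheroids exposed to compounds for seven days.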

Cn1ncnc1[C@H]1c2n[nH]c(=O)c3cc(F)cc(c23)N[C@@H]1c1ccc(F)cc1 + Nc1ccc(C#CCN(C(=O)Cc2ncc(C(F)(F)F)cc2C(F)(F)F)c2ccc(F)cc2)nn1
inactive: viability, T/C [7] 98.9% | viability, T/C [8] 94.9% | viability, T/C [9] 91.9% | viability, T/C [10] 101% | viability, T/C [11] 108% | viability, T/C [12] 94.3% | viability, T/C [13] 105% | viability, T/C [14] 108% | viability, T/C [15] 84.1% | viability, T/C [16] 97.3% | viability, T/C [17] 100% | viability, T/C [18] 81.9% | viability, T/C [19] 99% | viability, T/C [20] 93.7% | viability, T/C [21] 108% | viability, T/C [22] 93.8% | viability, T/C [23] 97.7% | viability, T/C [24] 95.2% | viability, T/C [25] 102% | viability, T/C [26] 96.8% | viability, T/C [27] 94.5% | viability, T/C [28] 86.9% | viability, T/C [29] 103% | viability, T/C [30] 104% | viability, T/C [31] 105% | viability, T/C [32] 100% | viability, T/C [33] 100% | viability, T/C [34] 110% | viability, T/C [35] 113% | viability, T/C [36] 93.9% | viability, T/C [37] 122% | viability, T/C [38] 119% | viability, T/C [39] 121% | viability, T/C [40] 119% | viability, T/C [41] 111% | viability, T/C [42] 127%
> 100 nM: IC50 [1] | IC50 [2] | IC50 [3] | IC50 [4] | IC50 [5] | IC50 [6]

CC1COCCN1c1cc(C2(O)CC3CCC(C2)O3)c2cnn(-c3ccn[nH]3)c2n1 (stereo not drawn)
431 nM and 391 nM and 592 nM: IC50 (curve of compound)
inactive: viability, T/C (compound 0.0316 µM) 79.8% and 96.8% and 76.4% | viability, T/C (compound 0.1 µM) 77% and 69.1% and 83.1% | viability, T/C (compound 0.316 µM) 57.1% and 59.1% and 53.6% | viability, T/C (compound 1 µM) 29.4% and 34.3% and 49.3% | viability, T/C (compound 3.16 µM) 27.7% and 24.9% and 49.9% | viability, T/C (compound 10 µM) 16.7% and 22% and 41.5%

CC[C@@]1(O)C(=O)OCc2c1cc1n(c2=O)Cc2cc3c(CN(C)C)c(O)ccc3nc2-1 + Nc1ccc(C#CCN(C(=O)Cc2ncc(C(F)(F)F)cc2C(F)(F)F)c2ccc(F)cc2)nn1
> 100 nM: IC50 [1] | IC50 [2] | IC50 [3] | IC50 [4] | IC50 [5] | IC50 [6]
inactive: viability, T/C [7] 117% | viability, T/C [8] 90.7% | viability, T/C [9] 124% | viability, T/C [10] 103% | viability, T/C [11] 96.5% | viability, T/C [12] 99.8% | viability, T/C [13] 91.1% | viability, T/C [14] 99.2% | viability, T/C [15] 91% | viability, T/C [16] 94.7% | viability, T/C [17] 103% | viability, T/C [18] 102% | viability, T/C [19] 97.1% | viability, T/C [20] 94.8% | viability, T/C [21] 91.7% | viability, T/C [22] 79.3% | viability, T/C [23] 101% | viability, T/C [24] 101% | viability, T/C [25] 95.2% | viability, T/C [26] 88.9% | viability, T/C [27] 83% | viability, T/C [28] 85% | viability, T/C [29] 102% | viability, T/C [30] 91.1% | viability, T/C [31] 95.8% | viability, T/C [32] 95.7% | viability, T/C [33] 94.2% | viability, T/C [34] 95.4% | viability, T/C [35] 103% | viability, T/C [36] 91.8% | viability, T/C [37] 111% | viability, T/C [38] 93.7% | viability, T/C [39] 124% | viability, T/C [40] 112% | viability, T/C [41] 112% | viability, T/C [42] 127%

CC1COCCN1c1cc(-c2ccnn2C)c2ccnc(-c3ccn[nH]3)c2n1 (stereo not drawn)
406 nM and 270 nM and 2090 nM: IC50 (curve of compound)
inactive: viability, T/C (compound 0.0316 µM) 93.1% and 105% and 77.6% | viability, T/C (compound 0.1 µM) 67.1% and 76.9% and 73.5% | viability, T/C (compound 0.316 µM) 55.3% and 44.6% and 61.7% | viability, T/C (compound 1 µM) 37.6% and 31.7% and 57.4% | viability, T/C (compound 3.16 µM) 35.6% and 27.5% and 46% | viability, T/C (compound 10 µM) 25.1% and 22.8% and 38.4%
